The record followed here is ChEMBL document CHEMBL4325884, “Investigation of the molecular characteristics of bisindole inhibitors as HIV-1 glycoprotein-41 fusion inhibitors” (Eur J Med Chem, 2019).

Data set [1] relates to Human immunodeficiency virus 1. In words: Antiviral activity against HIV-1 Bal infected in human MAGI-CCR5 cells assessed as reduction in viral infection after 48 hrs by fluorescence based beta-galactosidase reporter gene assay. It counts as functional, organism-based. Particulars: Human immunodeficiency virus 1, Bal, MAGI-CCR5, 48 h. For orientation: Reporter assays use an easily measured gene product as a stand-in for the process of interest.

Data set [2] has as its system Human immunodeficiency virus 1. The data set can be described thus: Antiviral activity against HIV-1 3B infected in human MAGI-CXCR4 cells assessed as reduction in viral infection after 48 hrs by fluorescence based beta-galactosidase reporter gene assay. Particulars: Human immunodeficiency virus 1, 3B. Type of data set: functional, organism-based.
In data set [3] the target is Envelope glycoprotein gp160 (Human immunodeficiency virus 1, UniProt Q6QLK5). The data set can be described thus: Binding affinity to HIV1 N-terminal 2,2-bipyridine-5-carboxylate-capped Envelope glycoprotein gp41 Fe2(env2.0)3 by C18FL probe based fluorescence quenching assay.
A short description of data set [4]: Cytotoxicity against human PBMC by MTS or resazurin dye based assay. Type of data set: cell-based. For orientation: Tetrazolium assays rely on reduction of a dye to a coloured formazan, in cell work by metabolically active cells.
Data set [5] can be described thus: Cytotoxicity against human MAGI cells by MTS or resazurin dye based assay. It counts as cell-based.

Sequence of Envelope glycoprotein gp160 (Q6QLK5 whole entry): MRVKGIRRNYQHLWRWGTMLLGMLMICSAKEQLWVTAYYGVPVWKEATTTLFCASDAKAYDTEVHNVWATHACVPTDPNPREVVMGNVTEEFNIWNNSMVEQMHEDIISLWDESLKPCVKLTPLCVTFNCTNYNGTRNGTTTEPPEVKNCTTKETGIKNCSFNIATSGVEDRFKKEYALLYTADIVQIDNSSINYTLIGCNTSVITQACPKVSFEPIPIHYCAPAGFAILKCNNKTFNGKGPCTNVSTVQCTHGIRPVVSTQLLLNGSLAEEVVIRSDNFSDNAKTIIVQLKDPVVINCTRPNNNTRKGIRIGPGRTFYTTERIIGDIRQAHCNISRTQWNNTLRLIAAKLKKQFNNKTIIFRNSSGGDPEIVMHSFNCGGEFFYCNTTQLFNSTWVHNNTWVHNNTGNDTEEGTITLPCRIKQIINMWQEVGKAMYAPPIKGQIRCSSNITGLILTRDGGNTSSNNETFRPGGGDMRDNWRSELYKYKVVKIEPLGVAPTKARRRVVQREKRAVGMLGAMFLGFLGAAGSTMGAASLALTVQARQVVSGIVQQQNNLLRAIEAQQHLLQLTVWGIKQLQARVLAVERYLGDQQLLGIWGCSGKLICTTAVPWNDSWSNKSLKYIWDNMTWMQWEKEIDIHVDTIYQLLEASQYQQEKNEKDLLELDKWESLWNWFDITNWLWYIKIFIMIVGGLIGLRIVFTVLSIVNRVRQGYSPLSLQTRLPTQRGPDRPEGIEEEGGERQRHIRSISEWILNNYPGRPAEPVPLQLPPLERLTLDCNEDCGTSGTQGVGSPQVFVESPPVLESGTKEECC

Consider `COc1cccc(CNc2cccc(-c3ccc4ccn(Cc5cccc(C(=O)O)c5)c4c3)c2)c1`, for which the IC50 in data set [1] and in data set [2] was greater than 20 µM throughout. Moreover, the affinity in data set [3], expressed as Ki, was 1.5 µM. Moreover, in data set [4], the 50% cytotoxic concentration (CC50) (in general, the concentration at which the toxic effect on the cells reaches its halfway point) was greater than 10 µM.
Take `CC(C)(C)OC(=O)n1ccc2ccc(-c3ccc4ccn(Cc5cccc(C(=O)O)c5)c4c3)cc21`: the IC50 – broadly, the concentration needed to halve the response being measured – in data set [1] came out at 0.9 µM; in data set [2], 1 µM. For the same molecule, the Ki (as a rule, the dissociation constant of the complex between target and ligand, obtained from inhibition or displacement) in data set [3] amounted to 1.9 µM. The 50% cytotoxic concentration (CC50) in data set [4] was greater than 20 µM.
The like results for `Cn1ccc2ccc(-c3ccc4cnn(Cc5cc(F)cc(C(=O)O)c5)c4c3)cc21` were, in that order, greater than 20 µM, greater than 20 µM, 2.1 µM and greater than 20 µM.
With `CC(C)(C)OC(=O)Nc1cccc(Cn2ccc3ccc(-c4ccc5ccn(Cc6cccc(C(=O)O)c6)c5c4)cc32)c1`, the IC50 is 0.4 µM in data set [1] and 0.5 µM in data set [2]. Besides, affinity in data set [3] was put at a Ki of 1.5 µM. In data set [4], this molecule returned a CC50 greater than 20 µM.
As for `Cc1ccc(S(=O)(=O)n2ccc3ccc(-c4ccc5ccn(Cc6cccc(C(=O)O)c6)c5c4)cc32)cc1`, the IC50 in data set [1] was found to be 0.8 µM; in data set [2] it was 0.9 µM. For the same molecule, in data set [3], the affinity corresponds to a Ki of 1.2 µM. Moreover, the 50% cytotoxic concentration (CC50) in data set [4] was greater than 50 µM.
For `COC(=O)c1cccc(Cn2ccc3ccc(-c4ccc5cnn(Cc6cccc(C(=O)O)c6)c5c4)cc32)c1` the same measures were 3.1 µM, 2.5 µM, 3.2 µM and greater than 20 µM.
For `CC(C)(C)OC(=O)N1CCC(Cn2ccc3ccc(-c4ccc5ccn(Cc6cccc(C(=O)O)c6)c5c4)cc32)CC1` the same measures were 0.6 µM, 0.6 µM, 1.2 µM and greater than 20 µM.
For `Cn1cc2ccc(-c3ccc4ccn(Cc5cc(F)cc(C(=O)O)c5)c4c3)cc2n1` the same measures were 14 µM, greater than 20 µM, 6.4 µM and greater than 20 µM.
For the molecule `CN(C(=O)OC(C)(C)C)c1cccc(-c2ccc3ccn(Cc4cccc(C(=O)O)c4)c3c2)c1`, the half-maximal inhibitory concentration (IC50) in data set [1] amounted to 15.6 µM; in data set [2], 11.3 µM. This molecule also came in with an inhibition constant Ki in data set [3] of 1.6 µM. This molecule also displayed a half-maximal cytotoxic concentration (CC50) in data set [4] greater than 20 µM.
As for `COc1cccc(CN(C(=O)OC(C)(C)C)c2cccc(-c3ccc4ccn(Cc5cccc(C(=O)O)c5)c4c3)c2)c1`, the concentration for half-maximal inhibition (IC50) in data set [1] amounted to 5.5 µM; in data set [2] it was 4.2 µM. Further, in data set [3], the affinity, expressed as Ki, was 0.45 µM. The CC50 in data set [4] is greater than 10 µM.
Consider `Nc1ccc(Cn2ccc3ccc(-c4ccc5ccn(Cc6cccc(C(=O)O)c6)c5c4)cc32)cc1`, for which the IC50 worked out at 1.1 µM in data set [1] and 1.3 µM in data set [2]. The inhibitory constant (Ki) in data set [3] was 3.1 µM. The CC50 in data set [4] is greater than 20 µM.
For the molecule `COc1cccc(CN(C)c2cccc(-c3ccc4ccn(Cc5cccc(C(=O)O)c5)c4c3)c2)c1`, the IC50 in data set [1] was 1.6 µM; in data set [2] it was 1.2 µM. The affinity in data set [3] corresponds to a Ki of 0.8 µM. Also, in data set [4], the CC50 is greater than 20 µM.
On to `O=C(O)c1cccc(Cn2ccc3ccc(-c4ccc5ccn(Cc6cccc(OC(F)(F)F)c6)c5c4)cc32)c1`, for which the figures for the IC50 in data set [1] and in data set [2] were 1.4 µM and 1.5 µM, respectively. In data set [3], this molecule registered a Ki of 2.3 µM. Further, in data set [4], the cytotoxic concentration (CC50) is greater than 20 µM.
With `COc1cc(Cn2ccc3ccc(-c4ccc5ccn(Cc6cccc(C(=O)O)c6)c5c4)cc32)cc(C(=O)O)c1`, the IC50 in data set [1] and in data set [2] was greater than 20 µM each time. For the same molecule, the Ki in data set [3] stood at 0.8 µM. In data set [4], this molecule gave a cytotoxic concentration (CC50) greater than 20 µM.
For the molecule `CC(C)(C)OC(=O)N1CCc2ccc(-c3ccc4ccn(Cc5cccc(C(=O)O)c5)c4c3)cc21`, the half-inhibitory concentration (IC50) in data set [1] stood at 2.3 µM; in data set [2], 2.8 µM. The inhibition constant Ki in data set [3] is 0.9 µM. Besides, the CC50 in data set [4] was greater than 25 µM.
The like results for `CC(C)(C)OC(=O)c1cccc(Cn2ccc3ccc(-c4ccc5ccn(Cc6cccc(C(=O)O)c6)c5c4)cc32)c1` were, in that order, 0.2 µM, 0.2 µM, 0.3 µM and greater than 10 µM.
For `Cn1ccc2cc(F)c(-c3ccc4ccn(Cc5cc(F)cc(C(=O)O)c5)c4c3)cc21` the same measures were 9.7 µM, 7.8 µM, 2 µM and greater than 20 µM.
The like results for `Cn1ccc2ccc(-c3ccc4c(c3)N(Cc3cccc(C(=O)O)c3)CC4)cc21` were, in that order, greater than 25 µM, greater than 25 µM, 10 µM and greater than 50 µM.
Turning to `COC(=O)c1cc(Cn2ccc3ccc(-c4ccc5ccn(Cc6cccc(C(=O)O)c6)c5c4)cc32)cc(C(=O)OC)c1`, the IC50 in data set [1] and in data set [2] was 0.6 µM in each case. In data set [3], this molecule returned a Ki of 1 µM. This molecule also displayed a half-maximal cytotoxic concentration (CC50) in data set [4] greater than 20 µM.
`COC(=O)c1cccc(Cn2ncc3ccc(-c4ccc5ccn(Cc6cccc(C(=O)O)c6)c5c4)cc32)c1`: the IC50 in data set [1] and in data set [2] was 1.4 µM throughout. Besides, in data set [3], the Ki was determined as 1 µM. The molecule also gave a CC50 in data set [4] greater than 50 µM.
Take `COc1cccc(CN2CCc3ccc(-c4ccc5ccn(Cc6cccc(C(=O)O)c6)c5c4)cc32)c1`: the IC50 in data set [1] came to 1.9 µM; in data set [2], 2.4 µM. The molecule also had a Ki in data set [3] of 3.6 µM. The same molecule displayed a CC50 in data set [4] greater than 25 µM.
For `COC(=O)c1cccc(Cn2ccc3cc(F)c(-c4ccc5ccn(Cc6cccc(C(=O)O)c6)c5c4)cc32)c1` the same measures were 0.5 µM, 0.4 µM, 0.7 µM and greater than 20 µM.
For `COC(=O)c1ccc(Cn2ccc3ccc(-c4ccc5ccn(Cc6cccc(C(=O)O)c6)c5c4)cc32)c(OC)c1`, the values for the IC50 in data set [1] and in data set [2] were 4.2 µM and 3.1 µM, respectively. In addition, in data set [3], the Ki is 0.4 µM. In addition, the CC50 in data set [5] and in data set [4] was 25 µM each time.
As for `Cn1ncc2ccc(-c3ccc4cnn(Cc5ccc(F)c(C(=O)O)c5)c4c3)cc21`, the IC50 in data set [1] and in data set [2] was greater than 20 µM each time. The molecule further returned a Ki in data set [3] of 19 µM. The CC50 in data set [5] and in data set [4] was 200 µM each time.
For the molecule `COc1cccc(Cn2ccc3ccc(-c4ccc5c(C)cn(Cc6cccc(C(=O)O)c6)c5c4)cc32)c1`, the IC50 in data set [1] was 10.5 µM; in data set [2] it was 12.9 µM. The Ki in data set [3] came to 1.2 µM. The CC50 in data set [5] and in data set [4] was 70 µM each time.
As for `COC(=O)c1cc(F)cc(Cn2ccc3ccc(-c4ccc5ccn(Cc6cccc(C(=O)O)c6)c5c4)cc32)c1`, the half-inhibitory concentration (IC50) in data set [1] stood at 0.4 µM; in data set [2], 0.5 µM. Also, the Ki in data set [3] came out at 1 µM. In data set [4], this molecule showed a CC50 greater than 20 µM.
The like results for `Cn1ncc2ccc(-c3ccc4ccn(Cc5cc(F)cc(C(=O)O)c5)c4c3)cc21` were, in that order, 10.1 µM, 11.3 µM, 2.5 µM and greater than 20 µM.
For `O=C(O)c1cccc(Cn2ccc3ccc(-c4ccc5ccn(Cc6cccc([N+](=O)[O-])c6)c5c4)cc32)c1` the same measures were 2.8 µM, 3.4 µM, 2.7 µM and greater than 20 µM.
The like results for `Cn1ccc2ccc(-c3ccc4ccn(Cc5cc(F)cc(C(=O)O)c5)c4c3)cc21` were, in that order, 8.2 µM, 9.1 µM, 3 µM and greater than 20 µM.
Turning to `CC(=O)Nc1cccc(Cn2ccc3ccc(-c4ccc5ccn(Cc6cccc(C(=O)O)c6)c5c4)cc32)c1`, the results for the IC50 in data set [1] and in data set [2] were 4.7 µM and 4.5 µM, respectively. Also, the inhibition constant Ki in data set [3] worked out at 0.9 µM. In data set [4], this molecule had a half-maximal cytotoxic concentration (CC50) greater than 20 µM.
For `COc1cccc(Cn2ccc3ccc(-c4ccc5cn(Cc6cccc(C(=O)O)c6)nc5c4)cc32)c1` the same measures were 5.8 µM, 5.5 µM, 1 µM and greater than 20 µM.
For `COc1cccc(Cn2ccc3cc(F)c(-c4ccc5ccn(Cc6cccc(C(=O)O)c6)c5c4)cc32)c1`, the half-inhibitory concentration (IC50) came to 9.4 µM in data set [1] and 7 µM in data set [2]. In data set [3], this molecule registered an inhibitory constant (Ki) of 5 µM. Further, the CC50 in data set [4] was greater than 20 µM.
The like results for `Cc1cn(C(=O)OC(C)(C)C)c2cc(-c3ccc4ccn(Cc5cccc(C(=O)O)c5)c4c3)ccc12` were, in that order, 1.2 µM, 1.7 µM, 4.7 µM and greater than 20 µM.
